pIC50, pKd: −log10 of the molar value.

In test [1] the target is T1, folate receptor beta (Homo sapiens (Human), UniProt P14207). As to the kind of experiment: Folate receptor SPR assay (biotinylated folate receptor beta on streptavidin chip). Format: binding. The following applies: for Rmax: biotinylated folate receptor beta on streptavidin chip; for kd / pKd / kon: multi-cycle kinetics, 25° C., 1:1 model; for pKd: read-out: FOLR2Biotin - SPR Kd; for kon: pH 7.5, read-out: ka. The procedure: Folate receptor SPR binding assays were conducted on a Biacore 8K instrument (Cytiva) using biotinylated folate receptor beta (Acro Biosystems). Briefly, folate receptor was immobilized at -550 RU on a streptavidin chip (Cytiva) in 10 mM HEPES pH 7.5, 150 mM NaCl, 0.05% Tween 20. Multi-cycle kinetic studies were conducted with 8 compound concentrations using 2-fold dilutions in 10 mM HEPES pH 7.5, 150 mM NaCl, 0.05% Tween 20, 2% DMSO at 25° C. A flow rate or 75 μl/mmn with an association time of 120 s and a dissociation time of 600 s were used. Surfaces were regenerated with 4 M MgCl2 at 30 μl/min for 30 s. Data were fit to a 1:1 model to determine the reported binding parameters.
Background: SPR reads the build-up and loss of mass on a sensor chip optically.

The target in test [2] is TNFα (Homo sapiens (Human), UniProt P01375). Put plainly: TNFα binding assay (time-resolved FRET, biotinylated TNFα). As to conditions: 1 nM biotinylated TNFα, 80 nM probe, 16 hr incubation; read-out: TNF-HTRF-biotin. The method, then: TNFα binding was measured in black 96-well plates using a time-resolved FRET assay using a previously described fluorescence acceptor TNFα probe (Xiao et al J. Med. Chem. 2020). Biotinylated TNFα was purchased from Acro Biosystems. Binding reactions were conducted in 20 mM Hepes (pH 7.5) 10 mM MgCl2 0.015% Tween-20 0.05 mg/ml BSA 2% DMSO with 1 nM TNFα 0.5 nM Streptavidin-Tb and 80 nM probe. Test compounds were resuspended in DMSO and 3-fold serial dilutions were made at 100× final concentrations. Fluorescence was measured using λex=340 nm, λem=490, 520 nm on an SpectraMax M5e plate reader (Molecular Devices) after 16 hr incubation time. Dose responses were conducted in duplicate and normalized to the response with DMSO (high) and 100 nM (R)-3-(1-((3-chloro-7-fluoro-6-(2-(2-hydroxypropan-2-yl)pyrimidin-5-yl)-2-methyl-1,5-naphthyridin-4-yl)amino)ethyl)-4-fluorobenzonitrile (low) on each plate. IC50 values were determined by fitting to 4-parameter curves in GraphPad Prism.
A general note: Time-resolved FRET reads energy transfer from a long-lived donor to a nearby acceptor.

Test [3] has as its target T1, folate receptor beta. As to the kind of experiment: Folate receptor binding assay (fluorescence polarization). The following applies: 2.5 nM folate receptor beta, 2 nM FR-Cy probe, 2 hr incubation; read-out: FOLR2-FP. The method, then: Folate receptor binding was measured in black 96-well plates using a fluorescence polarization assay. A fluorescent probe consisting of a folate analog linked to Cy5 (FR-Cy) was custom synthesized.
Test compounds were resuspended in DMSO and 3-fold serial dilutions were made from 300-0.015 μM (100× final concentrations). Binding reactions were conducted in 200 μl final volume in 20 mM Hepes (pH 7.5) 250 mM NaCl 0.0150 Tween-20 1% DMSO with 2.5 nM folate receptor beta (Acro Biosystems) and 2 nM probe. Fluorescence polarization was measured using λex=620 nm, λem=688 nm on an Envision plate reader (Perkin Elmer) after 2 hr incubation time. Dose responses were conducted in duplicate and normalized to the response with DMSO (high) and 1 μM folic acid (low) on each plate. IC50 values were determined by fitting to 4-parameter curves in GraphPad Prism.
(In fluorescence polarisation assays a small probe gives low polarisation when free and higher when bound to something large.)

Test [4] has as its target TNFα and streptavidin immobilized FOL2R (Homo sapiens (Human), UniProt P01375+P14207). As to the kind of experiment: Ternary complex SPR assay. The following applies: 10 nM compound, max response normalized to expected response; for TC 150 nM- tagless TNF Normalized: 150 nM untagged TNF; for TC 300 nM- tagless TNF Normalized: 300 nM untagged TNF. Format: binding. The method, then: Folate receptor-TNFα ternary complex SPR assays were conducted on a Biacore 8K instrument (Cytiva) using biotinylated folate receptor beta (Acro Biosystems). Folate receptor was immobilized at -1800 RU on a streptavidin chip (Cytiva) in 10 mM HEPES pH 7.5, 150 mM NaCl, 0.05% Tween 20. Untagged TNF was preincubated with 10 nM compound for 6 hr in 10 mM HEPES pH 7.5, 150 mM NaCl, 0.05 Tween 20, 2% DMSO at 25° C. Samples were then injected over the folate receptor surface at 30 μl/min with an association time of 110 s and a dissociation time of 600 s. Surfaces were regenerated with 4 M MgCl2 at 30 μl/mm for 30 s. The maximum measured response was normalized by comparison to the maximum expected response for each compound.

Sequence of TNFα (P01375 77-233): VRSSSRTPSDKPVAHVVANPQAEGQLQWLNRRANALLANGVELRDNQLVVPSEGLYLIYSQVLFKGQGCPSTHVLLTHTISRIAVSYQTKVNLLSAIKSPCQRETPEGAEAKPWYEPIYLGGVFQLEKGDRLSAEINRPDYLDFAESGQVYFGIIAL
Sequence of TNFα and streptavidin immobilized FOL2R (P14207 17-230): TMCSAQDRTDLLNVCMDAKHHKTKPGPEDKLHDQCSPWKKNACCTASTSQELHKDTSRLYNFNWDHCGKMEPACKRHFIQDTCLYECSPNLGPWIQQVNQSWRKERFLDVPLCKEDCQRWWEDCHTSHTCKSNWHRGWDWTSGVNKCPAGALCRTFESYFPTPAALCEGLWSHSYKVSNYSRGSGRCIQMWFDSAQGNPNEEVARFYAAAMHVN
Sequence of TNFα and streptavidin immobilized FOL2R (P01375 77-233): as the sequence (P01375 77-233) above
T1 sequence (P14207 17-255): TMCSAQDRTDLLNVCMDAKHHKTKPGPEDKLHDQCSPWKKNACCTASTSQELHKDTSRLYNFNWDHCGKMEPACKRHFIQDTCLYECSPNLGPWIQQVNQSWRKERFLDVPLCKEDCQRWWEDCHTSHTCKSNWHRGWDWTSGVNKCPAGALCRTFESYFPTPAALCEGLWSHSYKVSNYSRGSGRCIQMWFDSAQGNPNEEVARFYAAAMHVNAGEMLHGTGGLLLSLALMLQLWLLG

Regarding `Cc1nc2cc(F)c(-c3cnc(N4CCN(C(=O)COCCn5cc(CCCN6CCC7(CC6)CCN(C(=O)CC[C@H](NC(=O)c6ccc(NCc8cnc9nc(N)nc(O)c9n8)cc6)C(=O)O)CC7)nn5)CC4)nc3)nc2c(N[C@H](C)c2cc(C#N)ccc2F)c1Cl` [Compound I-90, (S)-2-(4-(((2-amino-4-hydroxypteridin-6-yl)methyl)amino)benzamido)-5-(9-(3-(1-(2-(2-(4-(5-(7-chloro-8-(((R)-1-(5-cyano-2-fluorophenyl)ethyl)amino)-3-fluoro-6-methyl-1,5-naphthyridin-2-yl)pyrimidin-2-yl)piperazin-1-yl)-2-oxoethoxy)ethyl)-1H-1,2,3-triazol-4-yl)propyl)-3,9-diazaspiro[5.5]undecan-3-yl)-5-oxopentanoic acid], in test [1], the Rmax came out at 13.3 RU, the kd amounted to 0.00013 s⁻¹, the pKd is 11.30 and the kon turned out to be 2.62e+07 M⁻¹ s⁻¹. Also, in test [2], the pIC50 is 8.12. In test [3], the pIC50 was 8.36. For the same compound, in test [4], the “TC 150 nM- tagless TNF Normalized” value worked out at 20.4% and the “TC 300 nM- tagless TNF Normalized” value is given as 20.6%.

In the case of `Cc1nc2cc(F)c(-c3cnc(N4CCN(C(=O)COCCn5cc(CN(C)CCOCCOCCOCCNC(=O)CC[C@H](NC(=O)c6ccc(NCc7cnc8nc(N)nc(O)c8n7)cc6)C(=O)O)nn5)CC4)nc3)nc2c(N[C@H](C)c2cc(C#N)ccc2F)c1Cl` [Compound I-94, (S)-18-(4-(((2-amino-4-hydroxypteridin-6-yl)methyl)amino)benzamido)-1-(1-(2-(2-(4-(5-(7-chloro-8-(((R)-1-(5-cyano-2-fluorophenyl)ethyl)amino)-3-fluoro-6-methyl-1,5-naphthyridin-2-yl)pyrimidin-2-yl)piperazin-1-yl)-2-oxoethoxy)ethyl)-1H-1,2,3-triazol-4-yl)-2-methyl-15-oxo-5,811-trioxa-2,14-diazanonadecan-19-oic acid], in test [1], the Rmax came out at 15.4 RU, the kd was 0.000169 s⁻¹, the pKd is 10.71 and the kon amounted to 8.72e+06 M⁻¹ s⁻¹. In addition, the pIC50 in test [2] is 7.66. In addition, the pIC50 in test [3] is 8.03. In test [4], the “TC 150 nM- tagless TNF Normalized” value was found to be 16.3% and the “TC 300 nM- tagless TNF Normalized” value is recorded as 18.5%.

With `Cc1nc2cc(F)c(-c3cnc(N4CCN(C(=O)COCCn5cc(CN(CCO)CCOCCOCCOCCNC(=O)CC[C@H](NC(=O)c6ccc(NCc7cnc8nc(N)nc(O)c8n7)cc6)C(=O)O)nn5)CC4)nc3)nc2c(N[C@H](C)c2cc(C#N)ccc2F)c1Cl` [Compound I-93, (S)-19-(4-(((2-amino-4-hydroxypteridin-6-yl)methyl)amino)benzamido)-3-((1-(2-(2-(4-(5-(7-chloro-8-(((R)-1-(5-cyano-2-fluorophenyl)ethyl)amino)-3-fluoro-6-methyl-1,5-naphthyridin-2-yl)pyrimidin-2-yl)piperazin-1-yl)-2-oxoethoxy)ethyl)-1H-1,2,3-triazol-4-yl)methyl)-1-hydroxy-16-oxo-6,9,12-trioxa-3,15-diazaicosan-20-oic acid], in test [1], the Rmax was 17.7 RU, the kd was determined as 0.000178 s⁻¹, the pKd is 10.96 and the kon was 1.63e+07 M⁻¹ s⁻¹. In addition, in test [2], the pIC50 was 7.74. The pIC50 in test [3] was 8.18. Besides, in test [4], the “TC 150 nM- tagless TNF Normalized” value is recorded as 16.1% and the “TC 300 nM- tagless TNF Normalized” value is listed as 18.2%.

As for `Cc1nc2cc(F)c(-c3cnc(N4CCN(C(=O)COCCOCCOCCOCCOCCn5cc(CC[C@H](NC(=O)c6ccc(NCc7cnc8nc(N)nc(O)c8n7)cc6)C(=O)O)nn5)CC4)nc3)nc2c(N[C@H](C)c2cc(C#N)ccc2F)c1Cl` [Compound I-89, (S)-2-(4-(((2-amino-4-hydroxypteridin-6-yl)methyl)amino)benzamido)-4-(1-(17-(4-(5-(7-chloro-8-(((R)-1-(5-cyano-2-fluorophenyl)ethyl)amino)-3-fluoro-6-methyl-1,5-naphthyridin-2-yl)pyrimidin-2-yl)piperazin-1-yl)-17-oxo-3,6,9,12,15-pentaoxaheptadecyl)-1H-1,2,3-triazol-4-yl)butanoic acid], in test [1], the Rmax worked out at 31.1 RU, the kd came to 0.000337 s⁻¹, the pKd was 9.65 and the kon was determined as 1.51e+06 M⁻¹ s⁻¹. The pIC50 in test [2] was 7.38. Also, the pIC50 in test [3] is 8.08. In test [4] (60 nM untagged TNF), the “TC 60 nM taggless TNF normalized” value is on record as 11.6%. Besides, the “TC 300 nM- tagless TNF Normalized” value in test [4] was 15%.

For the compound `Cc1nc2cc(F)c(-c3cnc(N4CCN(C(=O)COCCOCCOCCOCCOCCOCCn5cc(CC[C@H](NC(=O)c6ccc(N(C)Cc7cnc8nc(N)[nH]c(=O)c8n7)cc6)C(=O)O)nn5)CC4)nc3)nc2c(N[C@H](C)c2cc(C#N)ccc2F)c1Cl` [Compound I-86, (S)-2-(4-(((2-amino-4-oxo-3,4-dihydropteridin-6-yl)methyl)(methyl)amino)benzamido)-4-(1-(20-(4-(5-(7-chloro-8-(((R)-1-(5-cyano-2-fluorophenyl)ethyl)amino)-3-fluoro-6-methyl-1,5-naphthyridin-2-yl)pyrimidin-2-yl)piperazin-1-yl)-20-oxo-3,6,9,12,15,18-hexaoxaicosyl)-1H-1,2,3-triazol-4-yl)butanoic acid], in test [1], the Rmax amounted to 18.1 RU, the kd was 0.000344 s⁻¹, the pKd is 10.64 and the kon stood at 1.53e+07 M⁻¹ s⁻¹. For the same compound, the pIC50 in test [2] is 7.77. Besides, in test [3], the pIC50 is 8.11. In test [4], the “TC 150 nM- tagless TNF Normalized” value amounted to 20.1% and the “TC 300 nM- tagless TNF Normalized” value came out at 22.8%.

One may read the pKd as the negative decadic logarithm of the Kd, by convention in mol/L.

The values are drawn from US20250127913A1, “BIFUNCTIONAL FOLATE RECEPTOR BINDING COMPOUNDS” (LYCIA THERAPEUTICS, INC., priority 2021, published 2025).
